As usually defined, the Kd is the equilibrium constant for the complex coming apart.

One test has as its system nucleotide-free KRas. The test is described as follows: Stopped-flow competition with mantdGDP (association kinetics). The settings on record: for kon: 25 °C, 1 µM KRas, 2 µM mantdGDP, 1, 2, 6 µM competing nucleotide, global fit. The format is binding. The procedure:
The association kinetics of the nucleotide analogues were analyzed with a SX-20 stopped-flow instrument (Applied Photophysics) at 25 °C in a buffer consisting of 25 mM HEPES (pH 7.5), 100 mM NaCl, 1 mM MgCl2, and 0.5 mM TCEP. 1 µM of nucleotide-free KRas ([Müller et al., 2017]) in one syringe was mixed rapidly with 2 µM mantdGDP in the other. In subsequent experiments, the second syringe contained competing nucleotides (1, 2, and 6 µM) in addition to 2 µM mantdGDP. The resulting progress curves were globally fit using KinTek Explorer to obtain the corresponding association rate constants as previously described (Table 1—source data 1, Table 1—source data 2 [Johnson et al., 2009]).

The subject of test [1] is T1, KRasG13C1-169 (Cys-light).
T1 construct: KRasWT1-169 and KRasG13C1-169 Cys-light (C51S C80L C118S) were expressed in BL21 (DE3) E. coli; hexahistidine (TEV site) (N, cleaved yes); made in house; host or cells: E. coli BL21 (DE3)
Nature of the test: Covalent modification of protein controlled by ESI-MS. In kind it is binding. On the procedure: After incubation at room temperature for the appropriate time, the modification of the protein was controlled by ESI-MS. For covalent modification of full-length KRasG13C, a nucleotide exchange with a 10-fold excess of the acryl-bearing nucleotides at pH 7.5 was first performed following incubation at room temperature for 24 h at pH 9.5 for covalent protein modification. Covalent protein modification was controlled by ESI-MS. The MS spectra were recorded on a VelosPro IonTrap (Thermo Scientific) with an EC 50/3 Nucleodur C18 1.8 μm column (Macherey and Nagel) and a gradient of the mobile phase A (0.1% formic acid in water) to B (0.1% formic acid in acetonitrile).

For a further test, the system named is Rab21. The test is described as above. The settings on record: compared to KRasG13C. In kind it is binding.
The next test concerns the target KRasWT1-169 (Homo sapiens, UniProt P01116). The test is described as follows: HPLC-based approach for determination of affinities relative to GDP. The settings on record: KA = KA(GDP) x KrelA; GDP from KA = 1/KD. The format is binding. On the procedure: The relative affinities of the nucleotide analogues were measured using an HPLC-based approach. 50 μM of […] was mixed with 50 μM of the acetamide derivatives and incubated either for 7 days at room temperature in the absence of EDTA, for 24 hr at 4 °C in the presence of 10 mM EDTA, or for 1 hr at room temperature in the presence of SOS in a buffer consisting of 20 mM HEPES (pH 7.5), 100 mM NaCl, 2 mM MgCl2, 1 mM TCEP and 5% glycerol. After incubation, the Ras proteins were washed five times with buffer (15 mL) using centrifugal filter devices to remove any unbound nucleotide, concentrated and analysed by isocratic HPLC runs. The resulting curves were analysed by integrating the corresponding peaks for GDP and the guanosine nucleotide analogues after distinct time points using the Agilent ChemStation Software (Table 1-source data 3, Table 1-source data 4). Based on the percentage distribution determined by the HPLC assay, the relative association constants (KrelA) for […] and bdaGDP could subsequently be calculated. In contrast, the superposition of the GDP signal prevented an exact determination of the relative association constant for […] values of 0.34 and 0.28 relative to GDP were determined for […] and bdaGDP, respectively. […] By rearranging the equilibrium reactions listed in (Equation 1a) and (Equation 1b), the following relationships are obtained for KGDP (Equation 2a) and […] Assuming that the concentration for aGDP used in the HPLC assay is 50 μM, the following GDP concentrations for […] (Equation 3a) and bdaGDP (Equation 3b) can be determined at time t=0 hr using the percentages determined in Table 1-source data 3:(3a) GDPtotal=%GDP/%[…]=37%/63%×50μM=29.4μM (3b) GDPtotal=%GDP/%bdaGDP=43%/57%×50μM=37.7μM The concentrations of the components listed in equation (Equation 2b) can be calculated as follows for […] (Equation 4a, Equation 4b, Equation 4c, Equation 4d) and bdaGDP (Equation 5a, Equation 5b, Equation 5c, Equation 5d) by considering the total GDP concentrations calculated previously:(4[…]]=47/100×29.4μM=13.8μM (4b) [Ras:GDP]=53/100×29.4μM=15.6μ[…]]=50μM-13.8μM=36.2μM (4d) [GDP]=29.4μM-15.6μM=13.8μM (5a) [Ras:bdaGDP]=39.5/100×37.7μM=14.9μM (5b) [Ras:GDP]=60.5/100×37.7μM=22.8μM (5c) [bdaGDP]=50μM-14.9μM=35.1μM (5d) [GDP]=37.7μM-22.8μM=14.9μM The relative association constant KrelA can be calculated by the following formula (Equation 6):(6) […] By inserting the concentrations of each component determined from (Equation 4a, Equation 4b, Equation 4c, Equation 4d) and (Equation 5a, Equation 5b, Equation 5c, Equation 5d) into (Equation 6), the relative association constants KrelA for […] (Equation 10a) and […]=1/0.136pM^-1=7.4pM (10b) KDbdaGDP=1/0.112pM^-1=8.9pM

Another test concerns the target KRas. Further details: method as in Jeganathan et al., 2018. The settings on record: reference value for GDP; ref Jeganathan et al., 2018; cited from earlier work.

Sequence of KRasWT1-169 (P01116 1-169): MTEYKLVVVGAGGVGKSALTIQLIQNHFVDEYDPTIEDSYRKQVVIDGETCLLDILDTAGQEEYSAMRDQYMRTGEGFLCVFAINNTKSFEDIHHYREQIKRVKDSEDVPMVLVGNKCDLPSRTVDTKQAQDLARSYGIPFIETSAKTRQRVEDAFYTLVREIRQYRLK

In the case of `C=CC(=O)NCCNC(=O)O[C@H]1[C@@H](O)[C@H](n2cnc3c(=O)[nH]c(N)nc32)O[C@@H]1COP(=O)(O)OP(=O)(O)O` [edaGDP], the kon in the test with nucleotide-free KRas is recorded as 3.73 µM^–1s^–1. For the same compound, the “covalent labelling of KRasG13C1-169 (Cys-light)” value in test [1] (pH 7.5, after 24 hr) is recorded as “slight labelling”; in test [1] (pH 9.5, after 24 hr), approximately 100%. Further, the “covalent modification of Rab21” value in the test on Rab21 is on record as “comparable to KRasG13C”.
`Nc1nc2c(ncn2[C@@H]2O[C@H](COP(=O)(O)OP(=O)(O)O)[C@@H](O)[C@H]2O)c(=O)[nH]1` [GDP, reference compound] came in with a KA on KRasWT1-169 of 0.4 pM⁻¹. In the test with nucleotide-free KRas, this compound gave a kon of 4.22 µM^–1s^–1. Besides, the koff with nucleotide-free KRas (calculated kinetic parameter) is reported as 1.1x10^–5 s^–1. Moreover, the dissociation constant (Kd) on KRas is 2.5 pM.

Values taken from publication PMC10042540, “Targeting oncogenic KRasG13C with nucleotide-based covalent inhibitors” (eLife, 2023).
